Experimental data reported in ChEMBL document CHEMBL5360542, “Current development of β-carboline derived potential antimalarial scaffolds” (Eur J Med Chem, 2023).

How the values were obtained:
Type in all cases: functional, organism-based
Plasmodium falciparum [1] = test: Antiplasmodial activity against multi-resistant Plasmodium falciparum W2 infected in erythrocytes assessed as inhibition of parasite growth incubated for 48 hrs by flow cytometry; settings: W2, Erythrocyte
Plasmodium falciparum [2] = test: Antimalarial activity against chloroquine-resistant Plasmodium falciparum FcB1 assessed as inhibition of parasite growth
Plasmodium falciparum [3] = test: Antimalarial activity against Plasmodium falciparum 3D7 infected in human A positive erythrocytes assessed as reduction in parasite growth incubated for 24 hrs by [3H]hypoxanthine based scintillation counting analysis; settings: 3D7, Erythrocyte
Plasmodium falciparum [4] = test: Antimalarial activity against chloroquine-resistant Plasmodium falciparum K1 infected in human A positive erythrocytes assessed as reduction in parasite growth incubated for 24 hrs by [3H]hypoxanthine based scintillation counting analysis; settings: K1, Erythrocyte
Plasmodium falciparum [5] = test: Antiplasmodial activity against chloroquine-sensitive erythrocyte stage Plasmodium falciparum 3D7 assessed as inhibition of parasite growth incubated for 3 days by ELISA; settings: 3D7, Erythrocyte, 72 h
Plasmodium falciparum [6] = test: Antiplasmodial activity against chloroquine-resistant erythrocyte stage Plasmodium falciparum Dd2 assessed as inhibition of parasite growth incubated for 3 days by ELISA; settings: 72 h
Plasmodium falciparum [7] = test: Antimalarial activity against chloroquine-resistant Plasmodium falciparum K1
Plasmodium falciparum [8] = test: Antimalarial activity against Plasmodium falciparum 3D7 infected in erythrocytes assessed as inhibition of parasite growth incubated for 48 hrs by SYBR-Green I fluorescence-based assay; settings: 3D7, Erythrocyte
Plasmodium falciparum [9] = test: Antimalarial activity against Plasmodium falciparum INDO infected in erythrocytes assessed as inhibition of parasite growth incubated for 48 hrs by SYBR-Green I fluorescence-based assay; settings: Erythrocyte
Plasmodium falciparum [10] = test: Antimalarial activity against chloroquine-sensitive Plasmodium falciparum D10 transfected in human type A-positive RBC cells assessed reduction in parasite growth by measuring LDH activity incubated for 72 hrs by spectrophotometric analysis; settings: Plasmodium falciparum, D10, Erythrocyte, 72 h
Plasmodium falciparum [11] = test: Antimalarial activity against chloroquine-resistant Plasmodium falciparum W2 transfected in human type A-positive RBC cells assessed reduction in parasite growth by measuring LDH activity incubated for 72 hrs by spectrophotometric analysis; settings: Plasmodium falciparum, W2, Erythrocyte, 72 h
Plasmodium falciparum [12] = test: Antimalarial activity against chloroquine-resistant Plasmodium falciparum K1 assessed as reduction in parasite growth incubated for 72 hrs by ELISA; settings: K1, 72 h
Plasmodium falciparum [13] = test: Antimalarial activity against chloroquine-sensitive Plasmodium falciparum 3D7 assessed as reduction in parasite growth
Plasmodium falciparum [14] = test: Antimalarial activity against chloroquine-resistant Plasmodium falciparum K1 assessed as reduction in parasite growth

Work on `COc1ccc(C2NCCc3c2[nH]c2ccccc32)cc1` (configuration not stated) yielded an IC50 (Plasmodium falciparum [1]) of 700 nM.

For `COC(=O)c1cc2c([nH]c3ccccc32)c(C(=O)c2c[nH]c3ccccc23)n1`, the IC50 (Plasmodium falciparum [2]) was 23300 nM.

`Clc1ccc(C2NCCc3c2[nH]c2ccccc32)cc1` (configuration not stated) showed an IC50 (Plasmodium falciparum [1]) of 4800 nM.

For `CCN(CC)CCCNc1nccc2c1[nH]c1ccc(Cl)cc12`, the IC50 (Plasmodium falciparum [3]) was 150 nM.

`CCN(CC)CCCNc1nccc2c1[nH]c1ccc(F)cc12` showed an IC50 (Plasmodium falciparum [3]) of 600 nM and an IC50 (Plasmodium falciparum [4]) of 300 nM.

Molecule `O=C(O)c1cc2c([nH]c3ccccc32)c(-c2c[nH]c3ccccc23)n1` has an IC50 (Plasmodium falciparum [2]) greater than 31000 nM.

`Brc1ccc(C2NCCc3c2[nH]c2ccccc32)cc1` (configuration not stated) was tested, and the IC50 (Plasmodium falciparum [1]) was 6900 nM.

Work on `Clc1ccc2[nH]c3c(N4CCC(N5CCCC5)CC4)nccc3c2c1` yielded an IC50 (Plasmodium falciparum [3]) of 930 nM and an IC50 (Plasmodium falciparum [4]) of 1030 nM.

With `Clc1ccc2[nH]c3c(N4CCC(N5CCCCC5)CC4)nccc3c2c1` the IC50 (Plasmodium falciparum [3]) was 10200 nM and the IC50 (Plasmodium falciparum [4]) was 2660 nM.

In the case of `CN(C)c1ccc(C2NCCc3c2[nH]c2ccccc32)cc1` (configuration not stated), the IC50 (Plasmodium falciparum [1]) is reported as 3900 nM.

In the case of `O=[N+]([O-])c1ccc(C2NCCc3c2[nH]c2ccccc32)cc1` (configuration not stated), the IC50 (Plasmodium falciparum [1]) is reported as 1700 nM.

Work on `CCN(CC)C1CCN(c2nccc3c2[nH]c2ccc(Cl)cc23)CC1` yielded an IC50 (Plasmodium falciparum [3]) of 1600 nM and an IC50 (Plasmodium falciparum [4]) of 1180 nM.

`Fc1ccc(C2NCCc3c2[nH]c2ccccc32)cc1` (configuration not stated) was tested, and the IC50 (Plasmodium falciparum [1]) was 1100 nM.

`COc1ccc(/C=C/C(=O)NCCn2c3cc(OC)ccc3c3ccnc(C)c32)cc1` was tested, and the IC50 (Plasmodium falciparum [5]) was 260 nM and the IC50 (Plasmodium falciparum [6]) was 490 nM.

`COc1ccc2[nH]cc(C(=O)c3nccc4c3[nH]c3ccc(OC)cc34)c2c1` showed an IC50 (Plasmodium falciparum [2]) of 1000 nM.

Work on `C/C=C/C(=O)N1CCc2c(n(C(=O)OC(C)(C)C)c3ccccc23)C1CC(=O)OCC` (configuration not stated) yielded an IC50 (Plasmodium falciparum [7]) of 15000 nM.

For `CCOC(=O)c1cc2c([nH]c3ccccc32)c(-c2ccc(/N=C(/Nc3ccccc3)NC3CC3)cc2)n1`, the IC50 (Plasmodium falciparum [8]) was 1000 nM and the IC50 (Plasmodium falciparum [9]) was 600 nM.

With `CC(C)(C)CCNC(=O)C1Cc2c([nH]c3ccccc23)C(c2ccc(Cl)cc2)N1` (configuration not stated) the IC50 (Plasmodium falciparum [10]) was 10500 nM and the IC50 (Plasmodium falciparum [11]) was 7800 nM.

`CC(C)(C)OC(=O)n1cc(CC2NCCc3c2[nH]c2ccccc32)c2ccccc21` (configuration not stated) gave an IC50 (Plasmodium falciparum [2]) of 8500 nM.

`C/C=C/C(=O)N1CCc2c([nH]c3ccccc23)C1CC(=O)OCC` (configuration not stated) was tested, and the IC50 (Plasmodium falciparum [12]) was 13800 nM.

`CCOC(=O)c1cc2c([nH]c3ccccc32)c(-c2ccc(N)cc2)n1` showed an IC50 (Plasmodium falciparum [8]) of 37700 nM and an IC50 (Plasmodium falciparum [9]) of 39000 nM.

Molecule `CCOC(=O)c1cc2c([nH]c3ccccc32)c(-c2ccc(NC(=S)Nc3ccccc3)cc2)n1` has an IC50 (Plasmodium falciparum [8]) of 6400 nM and an IC50 (Plasmodium falciparum [9]) of 640 nM.

`C=C(C)CC1OC(C)=Cn2c3ccccc3c3cc(C(=O)OC)nc1c32` (configuration not stated) showed an IC50 (Plasmodium falciparum [13]) greater than 5000 nM.

`C=CCC1OC(C)=Cn2c3ccccc3c3cc(C(=O)OC)nc1c32` (configuration not stated) gave an IC50 (Plasmodium falciparum [14]) greater than 5000 nM and an IC50 (Plasmodium falciparum [13]) greater than 5000 nM.

Molecule `CCN(CC)CCCC(C)Nc1nccc2c1[nH]c1ccc(F)cc12` (configuration not stated) has an IC50 (Plasmodium falciparum [3]) of 370 nM and an IC50 (Plasmodium falciparum [4]) of 1200 nM.

For `COC(=O)c1cc2c3cc(Br)ccc3n3c2c(n1)COC(C)=C3`, the IC50 (Plasmodium falciparum [13]) was greater than 5000 nM.

`C=C(CC1OC(C)=Cn2c3ccccc3c3cc(C(=O)OC)nc1c32)C(=O)OC` (configuration not stated) was tested, and the IC50 (Plasmodium falciparum [14]) was 720 nM and the IC50 (Plasmodium falciparum [13]) was 570 nM.

Work on `Cc1nccc2c1[nH]c1cc(OCCNC(=O)/C=C/c3cccc(Br)c3)ccc12` yielded an IC50 (Plasmodium falciparum [5]) of 370 nM and an IC50 (Plasmodium falciparum [6]) of 480 nM.

For `CON(C)C(=O)CC1c2c(c3ccccc3n2C(=O)OC(C)(C)C)CCN1C(=O)OCc1ccccc1` (configuration not stated), the IC50 (Plasmodium falciparum [7]) was 13800 nM.

With `COc1ccc2c3ccnc(C)c3n(CCNC(=O)/C=C/c3ccc(F)cc3)c2c1` the IC50 (Plasmodium falciparum [5]) was 90 nM and the IC50 (Plasmodium falciparum [6]) was 330 nM.

In the case of `COC(=O)c1cc2c3ccccc3n3c2c(n1)C(C1C=CCCC1)OC(C)=C3` (configuration not stated), the IC50 (Plasmodium falciparum [14]) is reported as greater than 5000 nM and the IC50 (Plasmodium falciparum [13]) is reported as 1640 nM.

Molecule `COC(=O)c1cc2c3ccccc3n3c2c(n1)C(CC=C(C)C)OC(C)=C3` (configuration not stated) has an IC50 (Plasmodium falciparum [14]) greater than 5000 nM and an IC50 (Plasmodium falciparum [13]) greater than 5000 nM.

`COc1ccc2c3ccnc(C)c3n(CCNC(=O)/C=C/c3cccc(F)c3)c2c1` was tested, and the IC50 (Plasmodium falciparum [5]) was 70 nM and the IC50 (Plasmodium falciparum [6]) was 780 nM.

`COc1ccc2c3ccnc(C)c3n(CCNC(=O)/C=C/c3cccc(Br)c3)c2c1` gave an IC50 (Plasmodium falciparum [5]) of 70 nM and an IC50 (Plasmodium falciparum [6]) of 410 nM.

`COC(=O)c1cc2c3cc(Cl)ccc3n3c2c(n1)C(C/C=C(\C)CCC=C(C)C)OC(C)=C3` (configuration not stated) showed an IC50 (Plasmodium falciparum [14]) greater than 5000 nM and an IC50 (Plasmodium falciparum [13]) of 1550 nM.

With `COc1ccc(/C=C/C(=O)NCCOc2ccc3c(c2)[nH]c2c(C)nccc23)cc1` the IC50 (Plasmodium falciparum [5]) was 210 nM and the IC50 (Plasmodium falciparum [6]) was 1090 nM.

`Cc1nccc2c1[nH]c1cc(OCCNC(=O)/C=C/c3cccc(F)c3)ccc12` showed an IC50 (Plasmodium falciparum [5]) of 2750 nM and an IC50 (Plasmodium falciparum [6]) of 5010 nM.

`CC1NC(C(=O)N2CCCCC2)Cc2c1[nH]c1ccccc21` (configuration not stated) was tested, and the IC50 (Plasmodium falciparum [10]) was 13200 nM and the IC50 (Plasmodium falciparum [11]) was 9600 nM.

Work on `CCCCCCCC[C@@H]1N[C@@H](C(=O)NCCC(C)(C)C)Cc2c1[nH]c1ccccc21` yielded an IC50 (Plasmodium falciparum [10]) of 4450 nM and an IC50 (Plasmodium falciparum [11]) of 4000 nM.
